Laboratory results published in PubChem BioAssay AID1963845 (Molecular Pharmacology Branch, DTP, NCI, 2024).

System: 429239-143-T-J1-PDC complex spheroid viability
Experiment: Anticancer human tumor 429239-143-T-J1-PDC patient-derived small cell lung carcinoma cell line growth inhibition [POLQ]
Details: for IC50: curve of first compound; for viability, T/C: stronger effect = lower value; active = viability on the fitted dose curve at most 10% of control; inactive = the rest
Procedure: Multicellular complex tumor spheroid response to Polymerase (POL) inhibitors (novobiocin, ART-558, RP6685) in combination with a variety of drugs and investigational agents in selected tumor cell lines
The POL inhibitors (novobiocin, ART-558, and RP6685) were evaluated both individually and in combination with standard of care and investigational anticancer small molecules within a complex spheroid model of solid tumors. . Complex spheroids include a stromal component modeled by human endothelial cells (HUVEC) and fibroblasts modeled by human mesenchymal stem cells (MSCs). The concentration ranges selected for each drug and investigational agent were based upon clinically achievable concentrations if the clinical Cmax of the agent was known.
Compounds. The drugs and investigational agents: novobiocin (NSC847541), ART-558 (NSC835418), RP-6685 (NSC848927), peposertib (NSC802822), ceralasertib (NSC780249), elimusertib (NSC800525), camonsertib (NSC841442), AZD-1390 (NSC803789), olaparib (NSC753686), talazoparib (NSC767125), rucaparib (NSC756644), sotorasib (NSC818433), MRTX-1133 (NSC836407), SN-38 (NSC673596), topotecan (NSC609699), epotoside (NSC141540), doxorubicin (NSC123127), gemcitabine (NSC613327), 5-fluorouracil (NSC19893), paclitaxel (NSC125973), vemurafenib (NSC761431), MSA-2 (NSC828583), SN-011 (NSC837082), adavosertib (NSC754352), prexasertib (NSC758257), carboplatin (NSC241240) and oxaliplatin (NSC266046), were obtained from the National Cancer Institute (NCI) Developmental Therapeutics Program Chemical Repository (21). The FDA-approved anticancer drug set is available from the Developmental Therapeutics Program at https://dtp.cancer.gov/organization/dscb/obtaining/. […] The stock solutions were prepared in dimethyl sulfoxide (DMSO, Sigma-Aldrich, St. Louis, MO, cat. D2650), except for the platinum compounds which were prepared in saline (Quality Biological, Gaithersburg, MD, cat. 114-055-101), at 800-fold the tested concentration and stored at -70 degrees C prior to their use. All drugs and investigational agents were tested over a range starting from a high concentration at or near the clinical Cmax and decreasing in half-log increments. If the clinical Cmax for an agent had not been determined, the highest concentration tested was 10 microM, except for SN-38, which was tested at a high concentration of 1 microM.
Cell Culture. All cells were maintained in an incubator at 37 degrees C and 5% CO2 with 95% humidity. The PDC lines were cultured according to standard operating procedures established by the NCI PDMR (https://pdmr.cancer.gov). Table 3 of the manuscript, lists the cell lines along with the number of the three cell types plated to form the mct-spheroids and media for tumor cell growth. After thawing, all PDC lines, except 997537-175-T-J1-PDC and 415267-285-R-J2-PDC, were cultured in Matrigel-coated flasks prepared with a working solution of 1X Ham's F-12 nutrient mix, without supplementation (Thermo Fisher Scientific, cat. 11765054), 100 U/mL penicillin-streptomycin (Thermo Fisher Scientific, cat. 15140122), and 2.5% Matrigel (Corning Inc., Corning, NY, cat. 354248) for the first three passages. The two PDC lines 997537-175-T-J1-PDC and 415267-285-R-J2-PDC were cultured on uncoated flasks. The 857933-349-R-J2-PDC line was cultured in 6C/Colon 1B media containing advanced DMEM/F-12 (Thermo Fisher Scientific, cat. 12634028), 10 mM HEPES (Thermo Fisher Scientific, cat. 15630080), 1X GlutaMAX supplement (Thermo Fisher Scientific, cat. 35050061), 0.1 mg/mL primocin (InvivoGen, San Diego, CA, cat. ant-pm-2), 10% defined fetal bovine serum, heat inactivated (HyClone Laboratories Inc., Logan, UT, cat. SH30070.03HI), 50% L-WRN conditioned media (ATCC, cat. CRL-3276), 1.25 mM N-Acetyl-L-cysteine (Sigma-Aldrich, cat. A9165), 10 mM nicotinamide (Sigma-Aldrich, cat. N0636), 1X B-27 supplement (Thermo Fisher Scientific, cat. 17504044), 1X N-2 supplement (Thermo Fisher Scientific, cat. […]

[1] = second compound 0.0316 µM, first compound 0.0316 µM
[2] = second compound 0.0316 µM, first compound 0.1 µM
[3] = second compound 0.0316 µM, first compound 0.316 µM
[4] = second compound 0.0316 µM, first compound 1 µM
[5] = second compound 0.0316 µM, first compound 3.16 µM
[6] = second compound 0.0316 µM, first compound 10 µM
[7] = second compound 0.1 µM, first compound 0.0316 µM
[8] = second compound 0.1 µM, first compound 0.1 µM
[9] = second compound 0.1 µM, first compound 0.316 µM
[10] = second compound 0.1 µM, first compound 1 µM
[11] = second compound 0.1 µM, first compound 3.16 µM
[12] = second compound 0.1 µM, first compound 10 µM
[13] = second compound 0.316 µM, first compound 0.0316 µM
[14] = second compound 0.316 µM, first compound 0.1 µM
[15] = second compound 0.316 µM, first compound 0.316 µM
[16] = second compound 0.316 µM, first compound 1 µM
[17] = second compound 0.316 µM, first compound 3.16 µM
[18] = second compound 0.316 µM, first compound 10 µM
[19] = second compound 1 µM, first compound 0.0316 µM
[20] = second compound 1 µM, first compound 0.1 µM
[21] = second compound 1 µM, first compound 0.316 µM
[22] = second compound 1 µM, first compound 1 µM
[23] = second compound 1 µM, first compound 3.16 µM
[24] = second compound 1 µM, first compound 10 µM
[25] = second compound 3.16 µM, first compound 0.0316 µM
[26] = second compound 3.16 µM, first compound 0.1 µM
[27] = second compound 3.16 µM, first compound 0.316 µM
[28] = second compound 3.16 µM, first compound 1 µM
[29] = second compound 3.16 µM, first compound 3.16 µM
[30] = second compound 3.16 µM, first compound 10 µM
[31] = second compound 10 µM, first compound 0.0316 µM
[32] = second compound 10 µM, first compound 0.1 µM
[33] = second compound 10 µM, first compound 0.316 µM
[34] = second compound 10 µM, first compound 1 µM
[35] = second compound 10 µM, first compound 3.16 µM
[36] = second compound 10 µM, first compound 10 µM
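Also: luminescence signal used as surrogate measure of viable cells; spheroids exposed to compounds for seven days before readout.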
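For viability, T/C in this document: 100% = DMSO vehicle control viability as luminescence relative to vehicle.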

C=CC(=O)N1CCN(c2nc(=O)n(-c3c(C)ccnc3C(C)C)c3nc(-c4c(O)cccc4F)c(F)cc23)C(C)C1 (stereo unspecified) + Nc1ccc(C#CCN(C(=O)Cc2ncc(C(F)(F)F)cc2C(F)(F)F)c2ccc(F)cc2)nn1
> 10 µM: IC50 (second compound 0.0316 µM) | IC50 (second compound 0.1 µM) | IC50 (second compound 0.316 µM) | IC50 (second compound 1 µM) | IC50 (second compound 3.16 µM) | IC50 (second compound 10 µM)
inactive: viability, T/C [1] 101% | viability, T/C [2] 97.2% | viability, T/C [3] 97.2% | viability, T/C [4] 114% | viability, T/C [5] 108% | viability, T/C [6] 93.8% | viability, T/C [7] 97.7% | viability, T/C [8] 113% | viability, T/C [9] 108% | viability, T/C [10] 114% | viability, T/C [11] 102% | viability, T/C [12] 96.8% | viability, T/C [13] 108% | viability, T/C [14] 97.6% | viability, T/C [15] 99.6% | viability, T/C [16] 103% | viability, T/C [17] 109% | viability, T/C [18] 94.1% | viability, T/C [19] 98.9% | viability, T/C [20] 103% | viability, T/C [21] 99.3% | viability, T/C [22] 112% | viability, T/C [23] 98.4% | viability, T/C [24] 91.8% | viability, T/C [25] 107% | viability, T/C [26] 105% | viability, T/C [27] 109% | viability, T/C [28] 115% | viability, T/C [29] 104% | viability, T/C [30] 97.3% | viability, T/C [31] 104% | viability, T/C [32] 98.8% | viability, T/C [33] 111% | viability, T/C [34] 108% | viability, T/C [35] 95.7% | viability, T/C [36] 96.8%

CC1COCCN1c1cc(-c2ccnn2C)c2ccnc(-c3ccn[nH]3)c2n1 (stereo unspecified) + Nc1ccc(C#CCN(C(=O)Cc2ncc(C(F)(F)F)cc2C(F)(F)F)c2ccc(F)cc2)nn1
0.469 µM: IC50 (second compound 0.1 µM)
0.343 µM: IC50 (second compound 3.16 µM)
active: viability, T/C [5] 4.99% | viability, T/C [6] 3.79% | viability, T/C [11] 5.19% | viability, T/C [12] 4.25% | viability, T/C [17] 5.31% | viability, T/C [18] 3.76% | viability, T/C [23] 5.38% | viability, T/C [24] 4.35% | viability, T/C [29] 5.52% | viability, T/C [30] 3.58% | viability, T/C [35] 4.8% | viability, T/C [36] 3.43%
0.466 µM: IC50 (second compound 0.316 µM)
0.373 µM: IC50 (second compound 1 µM)
0.28 µM: IC50 (second compound 10 µM)
0.545 µM: IC50 (second compound 0.0316 µM)
inactive: viability, T/C [1] 95% | viability, T/C [2] 77.8% | viability, T/C [3] 68.3% | viability, T/C [4] 33.4% | viability, T/C [7] 91.9% | viability, T/C [8] 80.6% | viability, T/C [9] 62.9% | viability, T/C [10] 27.8% | viability, T/C [13] 91.5% | viability, T/C [14] 78.6% | viability, T/C [15] 64.7% | viability, T/C [16] 24.5% | viability, T/C [19] 86.8% | viability, T/C [20] 72% | viability, T/C [21] 56.1% | viability, T/C [22] 26.2% | viability, T/C [25] 87.9% | viability, T/C [26] 72.5% | viability, T/C [27] 53.1% | viability, T/C [28] 26.6% | viability, T/C [31] 89.4% | viability, T/C [32] 71.2% | viability, T/C [33] 47.4% | viability, T/C [34] 25.8%

CCc1cc2c(N3CCc4c(cc(Cn5ccnc5)cc4-c4cn(C)nc4C(F)(F)F)C3=O)cc(C)nc2c(OC)n1 + Nc1ccc(C#CCN(C(=O)Cc2ncc(C(F)(F)F)cc2C(F)(F)F)c2ccc(F)cc2)nn1
7.14 µM: IC50 (second compound 1 µM)
8.6 µM: IC50 (second compound 0.1 µM)
7.23 µM: IC50 (second compound 0.0316 µM)
8.7 µM: IC50 (second compound 0.316 µM)
4.85 µM: IC50 (second compound 10 µM)
inactive: viability, T/C [1] 104% | viability, T/C [2] 94.1% | viability, T/C [3] 91.3% | viability, T/C [4] 77.4% | viability, T/C [5] 72.1% | viability, T/C [6] 41.3% | viability, T/C [7] 98.7% | viability, T/C [8] 88.1% | viability, T/C [9] 85.8% | viability, T/C [10] 82.1% | viability, T/C [11] 74.1% | viability, T/C [12] 45.4% | viability, T/C [13] 103% | viability, T/C [14] 91.4% | viability, T/C [15] 98.7% | viability, T/C [16] 81.2% | viability, T/C [17] 63.4% | viability, T/C [18] 48.1% | viability, T/C [19] 108% | viability, T/C [20] 86.4% | viability, T/C [21] 91.7% | viability, T/C [22] 80.4% | viability, T/C [23] 76% | viability, T/C [24] 40% | viability, T/C [25] 101% | viability, T/C [26] 110% | viability, T/C [27] 88.7% | viability, T/C [28] 71.3% | viability, T/C [29] 58.7% | viability, T/C [30] 46.7% | viability, T/C [31] 104% | viability, T/C [32] 86.2% | viability, T/C [33] 84.2% | viability, T/C [34] 79.3% | viability, T/C [35] 64.6% | viability, T/C [36] 29.9%
7.93 µM: IC50 (second compound 3.16 µM)
